US12582642B2, “Composition for treating, improving, and/or preventing progression of bovine papillomatosis caused by bovine papillomavirus” (KinoPharma, Inc., priority 2020, dated 2026)
Values joined by “and” are separate entries in the source; they are usually repeats but may differ in a detail not shown here. Equal entries are not always repeated. “Also recorded” adds a separate entry of the source.

Columns and labels:
[1] = system: bovine papilloma (wart) caused by BPV in front teats; assay: Therapeutic effect confirmation test performed on dairy cow having papilloma; format: in vivo, cow (female dairy cows); parameters: key to Determination (pharmaceutical effect for each individual cow): Effective: Test section>Control section; Ineffective: Test section≤Control section
Excerpt: To female dairy cows (four), each having papillomas in both of front teats, an ointment agent containing Compound A was applied once a day to a papilloma (wart) of one of the front teats (test section). A dressing tape (Navis, PROSHARE Dressing Role, No. 8-5965-01) was applied around the teat after the application of the ointment agent to prevent external contamination. The ointment agent was applied over a surface of the teat at about 0.01 g to about 0.2 g (equivalent to the active ingredient of about 0.3 mg to about 6 mg) per 1 cm^2 of the surface area. The application (treatment) of 5-day administration with 2-day rest was continued for 4 weeks. The diseased part was imaged once a week. Pharmaceutical effects were evaluated based on a state of the diseased part (wart) four weeks after the start of the application.
Changes (size reduction/disappearance, no change, and growth/occurrence) of warts after four-week administration were evaluated with the following three-level evaluation scores. No change” includes the suppression of growth and being non-effective. “Occurrence” means that a new wart was generated during the four-week administration.
Size reduction/disappearance=+1, no change=0, and growth/occurrence=−1.
Further, scores were added for each individual cow, and pharmaceutical effects for each individual cow were determined based on the following criteria. • Effective: Test section>Control section • Ineffective: Test section≤Control section
When only small warts were targeted, the growth or size reduction of warts noticeably appear, which is considered to make it easier to determine the effects of Compound A. In view of this, only warts having a size of less than 5 mm before the application of an ointment agent were selected from the test sections and the control sections in the above-described confirmation test, and the ratio of warts that had smaller sizes or disappeared was calculated.

[2] = system: bovine papilloma (wart) caused by BPV in front teats; assay: as above; format: in vivo, cow (female dairy cows)
[3] = total of cows 01-04, ointment 3% by weight, 4 weeks

Structure (SMILES): Fc1ccc(N2CCCCC2)c(NC(=S)c2ccncc2)c1 [Compound A, N-[5-fluoro-2-(1-piperidinyl)phenyl]-4-pyridinethioamide]
- Ratio of warts that had smaller sizes or disappeared ([1]; Evaluation Method 2: only warts of less than 5 mm before application, 14 warts in the test sections, control sections 0%): 28.6%
- Overall judgement of the ointment agent containing Compound A ([1]; based on the total scores and on the individual cow evaluations, 4 weeks): considered effective
- Cases (cows) determined effective out of four cases ([1]; four cows, 4 weeks, ointment 3% by weight): Effective in three
- State of diseased part in a test section (FIG. 2 images) ([1]; from before the start of administration to after the end of administration): warts disappeared
- Test section Growth/Occurrence (evaluation score) ([1]; per individual cow, ointment (Compound A: 3% by weight) applied once a day to teat wart, 4 weeks, growth/occurrence=−1 per wart): 0 (3×) and −6
- Test section Size reduction/Disappearance (evaluation score) ([1]; per individual cow, ointment (Compound A: 3% by weight, white petrolatum) applied once a day to teat wart, 5-day administration with 2-day rest, 4 weeks, size reduction/disappearance=+1 per wart): +1 (2×) and +3 and +2
- Determination (pharmaceutical effect for each individual cow) ([1]; per individual cow, test section score versus control section (ointment base) score, 4 weeks): Ineffective; also recorded: Effective
- Effectiveness score Test section ([1]; scores added for each individual cow, ointment 3% by weight, 4 weeks): +1 (2×) and −3 and +2
- Test section Growth/Occurrence, Total of four cows [1, 3]: −6
- Test section Size reduction/Disappearance, Total of four cows [1, 3]: +7
- Effectiveness score Test section, Total ([1]; total of four cows, control sections total −8, 4 weeks): +1
- Warts that disappeared among the additional reduced warts in the test section ([2]; administration continued for a further four weeks after the four-week administration): two
- Additional warts with reduced size in the test section ([2]; administration continued under the same conditions for a further four weeks after the four-week administration): four
